Measurements from paper PMC7072645, “Targeting the Class A Carbapenemase GES-5 via Virtual Screening” (Biomolecules, 2020).
pKi: −log10 of the molar value.

How the values were obtained:
[1] = molecular target: T1, GES-5 (Klebsiella pneumoniae, UniProt Q09HD0); assay type: biochemical; conditions: reporter substrate, purified recombinant GES-5
T1 construct: made in house; host or cells: E. coli BL21(DE3)
Method: For protein expression, competent E. coli BL21(DE3) cells (PROMEGA, Madison, WI, USA) were transformed with recombinant plasmid blaGES-5/pet24a(+) as reported. Protein purification was performed using an Äkta Prime plus chromatograph system (GE Healthcare Life Sciences, Freiburg, Germany). GES-5 (Uniprot ID Q09HD0) was conveniently purified in a single step using a Macro-Prep High Q resin (Bio-Rad, Hercules, CA, USA.).

[2] = molecular target: T1, GES-5; assay: GES-5 hydrolysis inhibition, nitrocefin spectrophotometric assay; assay type: biochemical; conditions: for LE vs. GES-5: ligand efficiency from Ki vs GES-5
Method: (§1) Reactions were monitored using a Jasco V730 spectrophotometer. […] In order to perform spectrophotometric tests, compounds were dissolved in dimethyl sulfoxide (DMSO) to a concentration of 25 mM and stored at −20 °C. […] The reaction was typically initiated by adding GES-5 (2 nM final concentration), previously dialyzed in the reaction buffer. […] For KPC-2 experiments, the protein was obtained, and assays were conducted as previously reported.

[3] = molecular target: KPC-2 (Klebsiella pneumoniae, UniProt Q9F663); assay: KPC-2 inhibition assay, conducted as previously reported; assay type: biochemical; conditions: for % inhibition at [1mM] vs KPC-2: 1 mM inhibitor; for pKi: calculated from IC50 by Cheng-Prusoff; for LE vs. KPC-2: ligand efficiency from Ki vs KPC-2
KPC-2, sequence (Q9F663 25-293, looked up, species assumed): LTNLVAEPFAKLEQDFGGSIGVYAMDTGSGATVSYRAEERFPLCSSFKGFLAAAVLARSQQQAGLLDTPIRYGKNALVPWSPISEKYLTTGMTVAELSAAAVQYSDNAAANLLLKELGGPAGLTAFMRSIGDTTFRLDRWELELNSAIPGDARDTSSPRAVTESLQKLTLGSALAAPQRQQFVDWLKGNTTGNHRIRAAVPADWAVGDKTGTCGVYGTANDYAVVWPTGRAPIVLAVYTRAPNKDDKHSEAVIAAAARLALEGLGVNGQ
Method: as §1

[4] = test system: O=C(Cc1cccs1)N[C@@H]1C(=O)N2C(C(=O)O)=C(/C=C/c3ccc([N+](=O)[O-])cc3[N+](=O)[O-])CS[C@H]12; assay: purified protein, by the assay type; conditions: other: reporter substrate, purified recombinant GES-5

T1 sequence (Q09HD0 19-287): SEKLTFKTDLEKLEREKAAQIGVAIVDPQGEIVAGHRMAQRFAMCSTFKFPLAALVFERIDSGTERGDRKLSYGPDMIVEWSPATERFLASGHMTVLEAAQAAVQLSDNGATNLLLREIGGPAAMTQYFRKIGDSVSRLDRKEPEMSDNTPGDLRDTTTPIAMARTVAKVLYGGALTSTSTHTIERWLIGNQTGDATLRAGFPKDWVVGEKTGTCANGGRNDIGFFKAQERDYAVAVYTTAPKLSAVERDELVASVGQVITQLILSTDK

Row | Compound | Km [1] | pKi [2] | LE vs. GES-5 [2] | % inhibition at [1mM] vs KPC-2 [3] | pKi [3] | LE vs. KPC-2 [3] | % inhibition at [1mM] vs GES-5 [2] | Km [4]
1 | O=C(Cc1cccs1)N[C@@H]1C(=O)N2C(C(=O)O)=C(CSc3ccc([N+](=O)[O-])c(C(=O)O)c3)CS[C@H]12 [CENTA] | 524 µM |  |  |  |  |  |  | 
2 | COc1cc(Br)c(-c2nnn[nH]2)cc1OC [Compound 8] |  | 3.05 | 0.89 (0.27) kcal/mol/non-hydrogen atom | at least 30% | 3.46 | 0.30 kcal/mol/non-hydrogen atom |  | 
3 | O=C(O)c1cccc(S(=O)(=O)Nc2cccnc2)c1 [Compound 12] |  | 3.00 | 1.01 (0.22) kcal/mol/non-hydrogen atom | at least 30% | 2.86 | 0.21 kcal/mol/non-hydrogen atom |  | 
4 | Nc1nc(=O)n(CC(O)C(=O)O)cc1Br (centres unmarked) [Compound 13] |  | 3.09 |  | at least 30% | 3.55 | 0.33 kcal/mol/non-hydrogen atom |  | 
5 | COc1ccc2[nH]c(C(=O)O)nc2c1 [Compound 43] |  | 3.18 |  |  | 3.35 | 0.33 kcal/mol/non-hydrogen atom | 41% | 
6 | GES-5 (Klebsiella pneumoniae) |  |  |  |  |  |  |  | 208 µM
